Legend:
Experiment in all cases: KINOMEscan competition binding
TNIK (human) = TNIK (human) (UniProt Q9UKE5)
FGFR2 (human) = FGFR2 (human) (UniProt P21802)
CDKL5 (human) = CDKL5 (human) (UniProt O76039)
MYLK (human) = MYLK (human) (UniProt Q15746)
ERBB4 (human) = ERBB4 (human) (UniProt Q15303)
MAPK10 (human) = MAPK10 (human) (UniProt P53779)
MAPK12 (human) = MAPK12 (human) (UniProt P53778)
EPHA3 (human) = EPHA3 (human) (UniProt P29320)
EPHB2 (human) = EPHB2 (human) (UniProt P29323)
CSNK1D (human) = CSNK1D (human) (UniProt P48730)
MAP4K3 (human) = MAP4K3 (human) (UniProt Q8IVH8)
EPHB6 (human) = EPHB6 (human) (UniProt O15197)
FES (human) = FES (human) (UniProt P07332)
EPHB3 (human) = EPHB3 (human) (UniProt P54753)
MST1R (human) = MST1R (human) (UniProt Q04912)
YES1 (human) = YES1 (human) (UniProt P07947)
TEK (human) = TEK (human) (UniProt Q02763)
[1] = molecular target: ABL1 (human), P00519 [Q252H]
INSRR (human) = INSRR (human) (UniProt P14616)
ERBB2 (human) = ERBB2 (human) (UniProt P04626)
MAP3K7 (human) = MAP3K7 (human) (UniProt O43318)
ALK (human) = ALK (human) (UniProt Q9UM73)
EPHA4 (human) = EPHA4 (human) (UniProt P54764)
HIPK2 (human) = HIPK2 (human) (UniProt Q9H2X6)
FER (human) = FER (human) (UniProt P16591)
MAPK14 (human) = MAPK14 (human) (UniProt Q16539)
MATK (human) = MATK (human) (UniProt P42679)
SYK (human) = SYK (human) (UniProt P43405)
CAMK1D (human) = CAMK1D (human) (UniProt Q8IU85)
LYN (human) = LYN (human) (UniProt P07948)
ROCK2 (human) = ROCK2 (human) (UniProt O75116)
[2] = molecular target: ABL1 (human), P00519 [E255K]
[3] = molecular target: PIK3CA (human), P42336 [H1047Y]
[4] = molecular target: JAK2 JH1 catalytic (human) (UniProt O60674)
PRKAA2 (human) = PRKAA2 (human) (UniProt P54646)
[5] = molecular target: JAK1 JH1 catalytic (human) (UniProt P23458)
[6] = molecular target: ABL1 (human), P00519 [F317L]
CDK19 (human) = CDK19 (human) (UniProt Q9BWU1)
MAPK15 (human) = MAPK15 (human) (UniProt Q8TD08)
CDK16 (human) = CDK16 (human) (UniProt Q00536)

Chain of FGFR2 (human) (P21802 whole entry, looked up): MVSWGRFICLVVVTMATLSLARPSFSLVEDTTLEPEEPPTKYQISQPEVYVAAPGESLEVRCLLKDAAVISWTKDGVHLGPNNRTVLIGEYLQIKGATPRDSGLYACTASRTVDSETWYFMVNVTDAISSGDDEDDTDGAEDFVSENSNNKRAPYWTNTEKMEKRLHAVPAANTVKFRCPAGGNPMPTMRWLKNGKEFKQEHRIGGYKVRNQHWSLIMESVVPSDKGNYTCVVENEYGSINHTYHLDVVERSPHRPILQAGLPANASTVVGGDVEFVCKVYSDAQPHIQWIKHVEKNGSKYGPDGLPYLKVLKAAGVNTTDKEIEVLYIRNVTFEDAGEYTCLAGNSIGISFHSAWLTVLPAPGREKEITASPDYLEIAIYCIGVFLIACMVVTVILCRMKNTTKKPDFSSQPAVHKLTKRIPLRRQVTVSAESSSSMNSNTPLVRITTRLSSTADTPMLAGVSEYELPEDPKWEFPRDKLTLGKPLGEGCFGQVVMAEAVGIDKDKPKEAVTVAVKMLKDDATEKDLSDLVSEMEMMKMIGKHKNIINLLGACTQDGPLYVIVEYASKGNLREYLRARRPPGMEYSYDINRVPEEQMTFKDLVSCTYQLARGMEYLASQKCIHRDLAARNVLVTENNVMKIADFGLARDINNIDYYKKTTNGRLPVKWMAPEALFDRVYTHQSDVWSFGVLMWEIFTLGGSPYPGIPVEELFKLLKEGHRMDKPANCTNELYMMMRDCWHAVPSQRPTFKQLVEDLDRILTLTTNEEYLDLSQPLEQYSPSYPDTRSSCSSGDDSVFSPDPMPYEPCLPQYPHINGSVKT
Chain of INSRR (human) (P14616 whole entry, looked up): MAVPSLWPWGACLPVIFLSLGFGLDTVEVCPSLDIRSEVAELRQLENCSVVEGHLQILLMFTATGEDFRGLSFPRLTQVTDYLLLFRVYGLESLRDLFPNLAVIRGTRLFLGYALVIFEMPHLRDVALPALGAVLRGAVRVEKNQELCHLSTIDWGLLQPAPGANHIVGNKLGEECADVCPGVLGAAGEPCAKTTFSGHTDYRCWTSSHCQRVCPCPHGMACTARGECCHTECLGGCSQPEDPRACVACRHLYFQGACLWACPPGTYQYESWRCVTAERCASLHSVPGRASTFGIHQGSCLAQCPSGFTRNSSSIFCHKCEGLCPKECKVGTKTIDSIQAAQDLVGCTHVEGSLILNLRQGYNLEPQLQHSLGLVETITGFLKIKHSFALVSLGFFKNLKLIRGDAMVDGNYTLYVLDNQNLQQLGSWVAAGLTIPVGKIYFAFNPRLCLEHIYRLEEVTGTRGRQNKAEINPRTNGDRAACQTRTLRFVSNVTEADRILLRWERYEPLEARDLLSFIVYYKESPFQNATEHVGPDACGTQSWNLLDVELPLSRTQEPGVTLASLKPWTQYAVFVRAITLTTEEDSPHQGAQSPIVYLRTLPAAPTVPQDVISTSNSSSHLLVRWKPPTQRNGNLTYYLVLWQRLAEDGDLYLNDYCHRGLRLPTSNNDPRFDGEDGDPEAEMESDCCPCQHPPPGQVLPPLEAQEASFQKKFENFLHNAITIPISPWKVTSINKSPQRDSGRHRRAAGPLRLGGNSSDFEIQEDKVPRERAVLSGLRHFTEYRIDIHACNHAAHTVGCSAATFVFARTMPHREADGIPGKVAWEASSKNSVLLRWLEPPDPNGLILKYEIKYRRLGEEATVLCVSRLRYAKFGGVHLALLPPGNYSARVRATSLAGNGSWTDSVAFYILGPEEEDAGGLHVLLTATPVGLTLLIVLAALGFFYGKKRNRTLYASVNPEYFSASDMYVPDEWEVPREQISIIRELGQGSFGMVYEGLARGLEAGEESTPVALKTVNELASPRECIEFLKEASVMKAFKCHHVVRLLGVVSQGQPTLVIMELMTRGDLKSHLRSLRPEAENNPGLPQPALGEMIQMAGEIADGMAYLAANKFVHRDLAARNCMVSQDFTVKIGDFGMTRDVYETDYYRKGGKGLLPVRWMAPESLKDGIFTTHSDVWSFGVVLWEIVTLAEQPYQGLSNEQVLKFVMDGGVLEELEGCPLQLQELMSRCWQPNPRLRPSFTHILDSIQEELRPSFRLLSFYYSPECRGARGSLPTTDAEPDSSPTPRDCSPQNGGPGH
Chain of MATK (human) (P42679 whole entry, looked up): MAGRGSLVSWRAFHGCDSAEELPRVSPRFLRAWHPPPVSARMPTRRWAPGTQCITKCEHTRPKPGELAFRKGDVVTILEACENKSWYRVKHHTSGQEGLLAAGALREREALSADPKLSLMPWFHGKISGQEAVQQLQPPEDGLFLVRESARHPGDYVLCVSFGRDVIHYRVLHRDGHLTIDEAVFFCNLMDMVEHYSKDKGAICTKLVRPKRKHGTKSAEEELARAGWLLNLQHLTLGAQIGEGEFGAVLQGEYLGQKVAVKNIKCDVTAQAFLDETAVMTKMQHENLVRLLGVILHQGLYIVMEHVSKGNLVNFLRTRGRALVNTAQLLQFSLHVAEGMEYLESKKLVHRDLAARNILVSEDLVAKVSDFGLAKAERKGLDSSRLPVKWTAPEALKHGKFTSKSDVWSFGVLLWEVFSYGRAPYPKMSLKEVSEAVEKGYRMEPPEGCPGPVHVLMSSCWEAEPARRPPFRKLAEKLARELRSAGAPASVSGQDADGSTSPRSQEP
Chain of HIPK2 (human) (Q9H2X6 whole entry, looked up): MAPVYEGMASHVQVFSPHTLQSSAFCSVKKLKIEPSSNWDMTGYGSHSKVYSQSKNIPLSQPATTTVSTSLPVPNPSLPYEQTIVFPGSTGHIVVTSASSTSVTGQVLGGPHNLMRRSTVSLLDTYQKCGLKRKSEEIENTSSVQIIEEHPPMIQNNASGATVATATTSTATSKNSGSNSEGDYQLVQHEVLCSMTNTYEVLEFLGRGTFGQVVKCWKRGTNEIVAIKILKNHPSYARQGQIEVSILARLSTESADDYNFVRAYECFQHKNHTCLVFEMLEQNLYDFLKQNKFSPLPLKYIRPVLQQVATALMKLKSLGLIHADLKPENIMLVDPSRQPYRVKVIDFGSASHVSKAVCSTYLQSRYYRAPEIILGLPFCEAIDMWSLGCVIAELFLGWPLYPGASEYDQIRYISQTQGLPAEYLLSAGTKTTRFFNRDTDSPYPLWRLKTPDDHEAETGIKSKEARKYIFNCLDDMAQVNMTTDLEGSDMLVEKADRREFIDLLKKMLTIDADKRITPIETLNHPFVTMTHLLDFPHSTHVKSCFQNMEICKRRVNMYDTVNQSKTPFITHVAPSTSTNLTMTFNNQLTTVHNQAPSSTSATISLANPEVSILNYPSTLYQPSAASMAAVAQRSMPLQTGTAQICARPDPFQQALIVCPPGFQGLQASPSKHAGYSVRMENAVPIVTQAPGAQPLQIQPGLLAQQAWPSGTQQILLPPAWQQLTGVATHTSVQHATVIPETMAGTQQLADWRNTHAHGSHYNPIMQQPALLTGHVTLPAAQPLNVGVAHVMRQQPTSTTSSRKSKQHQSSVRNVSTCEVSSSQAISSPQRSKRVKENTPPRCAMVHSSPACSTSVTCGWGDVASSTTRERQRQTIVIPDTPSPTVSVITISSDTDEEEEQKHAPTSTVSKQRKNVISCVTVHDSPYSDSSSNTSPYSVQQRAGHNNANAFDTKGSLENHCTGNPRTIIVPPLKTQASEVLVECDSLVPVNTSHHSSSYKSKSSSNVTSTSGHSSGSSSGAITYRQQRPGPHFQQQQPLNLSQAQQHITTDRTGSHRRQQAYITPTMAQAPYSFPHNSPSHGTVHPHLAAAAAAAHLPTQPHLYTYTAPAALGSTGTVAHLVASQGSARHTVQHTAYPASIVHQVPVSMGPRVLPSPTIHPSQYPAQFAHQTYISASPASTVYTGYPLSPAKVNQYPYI
Chain of MAP3K7 (human) (O43318 whole entry, looked up): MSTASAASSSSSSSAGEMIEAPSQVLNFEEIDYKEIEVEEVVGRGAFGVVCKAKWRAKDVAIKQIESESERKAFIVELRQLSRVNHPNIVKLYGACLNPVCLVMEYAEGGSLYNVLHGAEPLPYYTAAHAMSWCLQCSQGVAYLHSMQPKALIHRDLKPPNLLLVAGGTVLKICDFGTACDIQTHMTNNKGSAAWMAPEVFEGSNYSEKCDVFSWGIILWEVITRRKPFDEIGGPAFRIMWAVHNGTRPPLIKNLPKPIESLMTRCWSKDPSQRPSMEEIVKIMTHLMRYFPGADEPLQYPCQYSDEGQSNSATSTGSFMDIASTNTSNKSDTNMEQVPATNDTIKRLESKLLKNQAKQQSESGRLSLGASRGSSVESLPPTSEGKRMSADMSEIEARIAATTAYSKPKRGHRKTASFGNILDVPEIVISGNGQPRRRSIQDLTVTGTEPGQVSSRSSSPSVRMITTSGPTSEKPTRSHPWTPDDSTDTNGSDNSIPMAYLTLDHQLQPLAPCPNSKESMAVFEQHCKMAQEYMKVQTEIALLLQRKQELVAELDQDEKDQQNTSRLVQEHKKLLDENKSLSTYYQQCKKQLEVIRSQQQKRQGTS
Chain of MAPK10 (human) (P53779 whole entry, looked up): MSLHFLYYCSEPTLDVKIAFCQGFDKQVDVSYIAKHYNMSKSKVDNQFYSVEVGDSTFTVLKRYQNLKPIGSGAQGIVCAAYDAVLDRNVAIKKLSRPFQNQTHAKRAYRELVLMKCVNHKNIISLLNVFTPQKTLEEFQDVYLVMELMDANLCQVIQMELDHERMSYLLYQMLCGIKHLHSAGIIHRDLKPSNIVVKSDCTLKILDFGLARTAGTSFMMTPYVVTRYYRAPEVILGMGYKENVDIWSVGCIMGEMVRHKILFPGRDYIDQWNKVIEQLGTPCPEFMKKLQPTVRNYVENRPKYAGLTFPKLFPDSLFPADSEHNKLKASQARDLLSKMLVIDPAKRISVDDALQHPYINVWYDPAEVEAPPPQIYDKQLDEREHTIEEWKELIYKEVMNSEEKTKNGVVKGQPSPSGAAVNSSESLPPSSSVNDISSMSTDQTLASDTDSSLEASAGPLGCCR

COc1cc2ncnc(Oc3cccc(NC(=O)Nc4cc(C(C)(C)C(F)(F)F)on4)c3)c2cc1OC
Kd (TNIK (human)): 66 nM | Kd (FGFR2 (human)): 3000 nM | Kd (CDKL5 (human)): 92 nM | Kd (MYLK (human)): 27 µM | Kd (ERBB4 (human)): 210 nM | Kd (MAPK10 (human)): 88 nM | Kd (MAPK12 (human)): 1300 nM | Kd (EPHA3 (human)): 36 nM | Kd (EPHB2 (human)): 40 nM | Kd (CSNK1D (human)): 13 µM | Kd (MAP4K3 (human)): 2300 nM | Kd (EPHB6 (human)): 92 nM | Kd (FES (human)): 110 nM | Kd (EPHB3 (human)): 3.8 µM | Kd (MST1R (human)): 6.4 µM | Kd (YES1 (human)): 160 nM | Kd (TEK (human)): 130 nM | Kd [1]: 9.9 nM | Kd (INSRR (human)): 31 µM | Kd (ERBB2 (human)): 240 nM | Kd (MAP3K7 (human)): 83 nM | Kd (ALK (human)): 34 µM | Kd (EPHA4 (human)): 31 nM | Kd (HIPK2 (human)): 1000 nM | Kd (FER (human)): 200 nM | Kd (MAPK14 (human)): 38 nM | Kd (MATK (human)): 26 µM | Kd (SYK (human)): 260 nM | Kd (CAMK1D (human)): 3.8 µM | Kd (LYN (human)): 2 nM | Kd (ROCK2 (human)): 37 µM | Kd [2]: 6.5 nM | Kd [3]: 37 µM | Kd [4]: 14 µM | Kd (PRKAA2 (human)): 28 µM | Kd [5]: 29 µM | Kd [6]: 3.8 nM | Kd (CDK19 (human)): 940 nM | Kd (MAPK15 (human)): 94 nM | Kd (CDK16 (human)): 1600 nM
